Publication PMC7504735, “Enhanced Antigiardial Effect of Omeprazole Analog Benzimidazole Compounds” (Molecules, 2020)

Experiments:
[1] = test system: Giardia lamblia trophozoites; test: Antigiardial activity on G. lamblia trophozoites, trypan blue dye exclusion; assay type: cell-based; conditions: Giardia duodenalis, 48 h at 37 °C, pH 7.4, trypan blue
Protocol: Giardia lamblia WB strain (ATCC number 30957) was grown in a modified TYI-S-33 medium supplemented with 10% fetal bovine serum. The parasite was cultivated in 15 mL screw-capped borosilicate glass tubes containing 13 mL medium. The tubes were incubated on a 15° horizontal slant at 37 °C. Giardia was harvested from confluent culture by chilling the tubes on ice for 5‒10 min to detach cells, followed by centrifugation at 800× g for 5 min.
The antigiardial activity of the prepared compounds was tested as described. One milligram of a test compound was dissolved in 10 L of DMSO and topped up with 1 mL growth medium. The solution was filter-sterilized using 0.22-m syringe filters and the appropriate volumes of the solutions were taken to prepare the concentration of each compound in 1.5 mL microtubes. For each preparation, concentrations of 500, 250, 125, 62, and 31 µg/mL were prepared in a final volume of 1.5 mL. Each tube was inoculated with 5 × 10^4 trophozoites of G. lamblia and then incubated for 48 h at 37 °C. After incubation, 75 L of the treated trophozoites were subcultured individually for another 48 h in a fresh medium free of compounds. At the end of this period, the viable trophozoites were counted. Each compound was assayed in duplicate in three independent experiments. In each assay, appropriate controls were also tested, including a sample without compound and another with DMSO.
The parasites in each tube were counted using a standard hemocytometer at 10× objective. In each count, trypan blue was employed to distinguish live parasites from dead ones. To permit detachment of Giardia, the tubes were placed on ice for 10 min and the parasites were then centrifuged at 800× g for 10 min. The supernatant was discarded and 1 mL fresh medium was added to each tube. The final suspension was prepared by mixing 25 μL of the parasite suspension in each tube with 100 μL of 0.4% trypan blue in phosphate-buffered saline (PBS). The 50% inhibitory concentration (IC50) was employed as a parameter for biological activity. The IC50 is the concentration of compounds that cuts the number of parasites to half that in the negative control (growth medium + DMSO + parasites). Lastly, the 50% inhibitory concentration (IC50) was calculated.

[2] = molecular target: T1, triosephosphate isomerase (TPI) (Giardia intestinalis, UniProt P36186); test: Thermal stability of TPI by circular dichroism at 222 nm; conditions: for Tm of TPI enzyme incubated with compound: compound at its IC50 concentration, 2 h at 37 °C, TPI free of treatment 60.6 °C
T1 construct: His-tag (TEV-cleavable) (cleaved yes); made in house
T1 sequence (P36186 whole entry): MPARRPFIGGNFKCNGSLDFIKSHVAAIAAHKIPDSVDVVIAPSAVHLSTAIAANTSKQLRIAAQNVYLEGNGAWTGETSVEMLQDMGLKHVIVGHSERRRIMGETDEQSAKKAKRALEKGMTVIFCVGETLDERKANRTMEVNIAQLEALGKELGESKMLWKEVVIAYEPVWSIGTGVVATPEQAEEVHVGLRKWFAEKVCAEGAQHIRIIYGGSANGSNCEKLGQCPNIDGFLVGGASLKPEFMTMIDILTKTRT
Protocol: All spectroscopic assays were carried out at a protein concentration of 0.2 mg/mL. Changes in the secondary structure of proteins were monitored by circular dichroism (CD) in a Jasco-810 spectropolarimeter containing a thermostated Peltier-controlled cell holder. For CD experiments, the enzyme was suspended in 50 mM phosphate buffer (buffer P), pH 7.4, and incubated with the four synthesized compounds by 2 h at 37 °C. Spectral scans from 190 to 280 nm at 0.1 nm intervals were performed at 25 °C using a quartz cell with 0.1 cm path length. All CD data were reported as molar ellipticity. In addition, the thermostability of modified TPI enzyme in the absence or presence of each of the synthesized compounds was evaluated, recording the loss of CD signal at 222 nm during a temperature scan ranging from 25 to 75 °C and an increase of 1 °C/2.5 min. The unfolded fraction of enzyme and melting temperature (Tm) was determined as reported before. The experiments were performed in triplicate.

[3] = molecular target: T1, triosephosphate isomerase (TPI); test: Intrinsic fluorescence of TPI; conditions: for Decrease of maximum intrinsic fluorescence intensity of TPI: compared to the TPI enzyme free of compounds; for Maximum intrinsic fluorescence intensity of TPI: compound at IC50 concentration, TPI without inhibitors 161 a.u. at 330 nm
Protocol: Changes in tertiary structure were analyzed following the intrinsic and extrinsic fluorescence of the TPI enzyme in a Perkin-Elmer LS-55 spectrofluorometer (Perkin-Elmer, Wellesley, MA, USA). The TPI protein was adjusted at 0.1 mg/mL in 50 mM phosphate buffer (buffer P), pH 7.4n, and incubated with the four synthesized compounds by 2 h at 37 °C. After the TPI protein was incubated with the synthesized compounds, the samples were excited at 280 nm and we recorded the emission spectra from 300 to 500 nm with a scan speed of 150 nm/min and using excitation and emission slits of 5 and 4 nm, respectively. Furthermore, we determined the extrinsic fluorescence of the TPI enzyme in the presence of the four compounds by 8-anilinonaphthalene-1-sulfonic acid (ANS) assay to monitor changes in the hydrophobic regions of the protein. The protein was incubated in the same conditions as the intrinsic fluorescence assay. Then, we recorded the fluorescence spectra from 400 to 600 nm in the presence of 25 mM of ANS dissolved in methanol at 25 °C with a scanning rate of 150 nm/min. The samples were excited to 395 nm using slits of excitation and emission of 10 nm, respectively. The final spectrum was the average of five scans. Later, each spectrum was subtracted from the spectra of the blank (buffer P solution containing each of the compounds plus ANS).

SMILES	IC50 [1] [µM]	Tm of TPI enzyme incubated with compound [2] [°C]	Decrease of maximum intrinsic fluorescence intensity of TPI [3] [%]	Maximum intrinsic fluorescence intensity of TPI [3] [a.u.]	Loss in thermal stability of TPI ([2]; versus TPI free of treatment) [°C]
COc1c(C)cnc(C[S+]([O-])c2nc3ccccc3[nH]2)c1C (centres unmarked) [H-BZM2, 2-[(4-methoxy-3,5-dimethylpyridin-2-yl)methanesulfinyl]-1H-benzimidazole]	36	59.9	75	40.1	–
Cc1c(OCC(F)(F)F)ccnc1C[S+]([O-])c1nc2ccccc2[nH]1 (centres unmarked) [Lansoprazole, 2-{[3-methyl-4-(2,2,2-trifluoroethoxy)pyridin-2-yl]methanesulfinyl}-1H-benzimidazole, reference compound]	45	60.2	25	123	–
O=[N+]([O-])c1ccc2nc([S+]([O-])Cc3ccccn3)[nH]c2c1 (centres unmarked) [O2N-BZM7, 5-nitro-2-[(pyridin-2-yl)methanesulfinyl]-1H-benzimidazole]	14	57.5	33	107	3
Cc1c(OCC(F)(F)F)ccnc1C[S+]([O-])c1nc2ccc([N+](=O)[O-])cc2[nH]1 (centres unmarked) [O2N-BZM9, 2-{[3-methyl-4-(2,2,2-trifluoroethoxy)pyridin-2-yl]methanesulfinyl}-5-nitro-1H-benzimidazole]	17	58.4	55	72.6	–
